# Earlier results as cited in patent publication US20240189256A1, “COMPOSITIONS FOR PRE-SURGICAL NUTRITIONAL SUPPLEMENTS” (TM Nutrition LLC, priority 2022, published 2024).
# What was measured:
# [1] = unless sepsis is present
# [2] = given orally
smiles,measurement,setting,value
N=C(N)NCCC[C@H](N)C(=O)O [arginine],supplementation safe and well tolerated up to,[1],up to 10 g/day
same,half-life,[2],1.5 to 2 h
